Reference: patent US9221800B2, “Isoxazole treatments for diabetes” (The Board of Regents of the University of Texas System, priority 2011, dated 2015)

Tests used:
human islets = assay: Gene expression by quantitative RT-PCR in cultured human islets; assay type: cell-based
Procedure: MIN6 cells were cultured in DMEM (Gibco), containing 25 mM glucose, 10% fetal bovine serum, 10 mM Hepes pH 7.4, 10.2 mM L-glutamine, […] sodium pyruvate, 2.5 mM β-mercaptoethanol, 100 U/ml penicillin and 100 μg/ml streptomycin at 37° C. in 10% CO2. Human islets were obtained from the ICR Basic Science Islet Distribution and from the University of Alabama, Birmingham Islet Resource Facility and were cultured in RPMI 1640 with 11 mM glucose for up to 1 year. The medium was changed twice weekly and the islets were subcultured when they reached 90% confluence. For Isx treatments, cells were incubated in medium containing either Isx or the equivalent volume of DMSO vehicle (0.04%). To measure GSIS, cells were placed in Krebs-Ringer bicarbonate/Hepes containing 0.1% bovine serum albumin and 2 mM glucose for 2 h, and stimulated for 15 min with 20 mM glucose, a 1× amino-acid mixture (concentrations as in DMEM), or 50 nM Exendin-4. U0126 (10 μM), nifedipine (3 μM), BAPTA (10 μM), wortmanin (0.5 μM) or FK506 (0.1 μM) were added for 1-24 h as indicated.
Total RNA was extracted from human islet preparations with TRI reagent according to manufacturer's protocol (Ambion). cDNA was prepared from total RNA by a mixture of random hexamer- and oligo-dT-primed reverse transcription (iScript Biorad). The expression of insulin and glucagon relative to 18S RNA was evaluated by TaqMan assays (Applied Biosystems). Relative expression of pancreatic factors was determined using Power SYBR Green PCR Master Mix (Applied Bio systems). Primer sequences for qRT-PCR are in STable 1. SYBR Green and TaqMan probe-based PCR was performed using the ABI 7500 DNA Sequence Detection System with standard fluorescent chemistries and thermal cycling conditions specified by the manufacturer: 50° C. for 2 min, 95° C. for 10 min for one cycle and an additional 40 cycles at 95° C. for 15 sec, and then 58° C. for 1 min.

MIN6 cells = assay: Quantitative RT-PCR of endogenous insulin gene expression in MIN6 cells; assay type: cell-based, mouse
Procedure: FIGS. 2A-E. Isx (LSH-1) activates insulin expression and improves β cell function in MIN6 cells. (FIG. 2A) Dose-response relationship of MIN6 cells treated with 5-80 μM Isx for 24 h or DMSO (0.08%—similar to the highest concentration of Isx). Whole cell lysates (40 μg) were subjected to immunoblotting using antibodies against BETA2NeuroD1, MafA, PDX-1, pERK1/2 (pT183/pY185), acetylated histones ACH4-K5K8K12K16 and ACH3K9 and total histone H3. (FIG. 2B) Quantitative RT-PCR of murine insulin1 and insulin2 gene expression in MIN6 cells treated with Isx for 24 h as in FIG. 2A. (FIG. 2C) GSIS in 15 min from MIN6 cells pretreated with Isx or vehicle for 48 h in the presence or absence of the MEK1/2 inhibitor U0126 for 24 h. (FIG. 2D) Insulin content measured by ELISA in MIN6 cells treated with Isx for 24 or 48 h. […]
Total RNA was extracted from human islet preparations with TRI reagent according to manufacturer's protocol (Ambion). cDNA was prepared from total RNA by a mixture of random hexamer- and oligo-dT-primed reverse transcription (iScript Biorad). The expression of insulin and glucagon relative to 18S RNA was evaluated by TaqMan assays (Applied Biosystems). Relative expression of pancreatic factors was determined using Power SYBR Green PCR Master Mix (Applied Bio systems). […]

insulin gene promoter = assay: ChIP analysis of association with the insulin promoter in MIN6 cells; assay type: cell-based, mouse
Procedure: ChIP was as described (Lawrence et al., 2008) with the following modifications. Chromatin was cross-linked with 1% formaldehyde and sonicated with a Bioruptor 200 (Diagenode) in an ice cold water bath. Antibodies immobilized on protein A-Sepharose beads were used for immunoprecipitation. ChIP products were analyzed by real-time Q-PCR as previously described for real-time PCR analysis (Lawrence et al., 2008) using the following primers (5′-CAGACCTAGCACCAGGG-3′ (SEQ ID NO:1) and 5′-GGACTTTGCTGTTTGTCCC-3′ (SEQ ID NO:2)) to amplify the −157/−50 fragment of the mouse insulin promoter encompassing the C1 (MafA), E1 (BETA2) and A1 (PDX-1) binding sites. The results were expressed relative to input and presented as mean+/− SEM of at least two independent experiments in triplicate.

BETA2 = assay: Acetylation of BETA2 (anti-myc immunoprecipitates, anti-acetyl lysine immunoblot); assay type: cell-based; conditions: cells overexpressing myc-BETA2 (FIG. 3C)
Procedure: FIGS. 3A-E. Isx (LSH-1) activates transcription factors that regulate insulin gene expression and insulin production. (FIG. 3A) Insulin promoter reporter activity in HEK293 cells transfected with BETA2, MafA, PDX-1, or (FIG. 3B) WT MafA or mutant MafA, treated with Isx or vehicle for 24 h. (FIG. 3C) Immunoblotting of anti-myc immunoprecipates using anti-acetyl lysine (Ac-K) and anti-BETA2 from cells overexpressing myc-BETA2. (FIG. 3D) Chromatin immunoprecipitation (ChIP) analysis of MafA and BETA2 (FIG. 3E) association with the insulin promoter in MIN6 cells in response to a 10-min glucose stimulation.

HAT = HAT activity in nuclear extracts of treated MIN6 cells; assay type: cell-based, mouse
Procedure: The histone acetyl transferase and deacetylase activities were measured in 50 μg of nuclear protein using the HAT and HDAC activity colorimetric assay kits from Biovision Biotechnology according to manufacturer's recommendations.

p300 = biological target: T1, p300 (Homo sapiens, UniProt Q09472); assay: HAT activity of HATs expressed in 293 cells; assay type: cell-based; conditions: combination of ERK2 expression and Isx, 24 h (FIG. 8)
T1 construct: expressed in transfected cells; host or cells: HEK293
Procedure: (§1) (FIG. 8A) Combined effect of Isx treatment for 24 h and WT ERK2 (W) or kinase dead K52R ERK2 (R) on the HAT activities of p300, and (FIG. 8B) other HATs, CBP, PCAF and GCN5-L2, transfected in HEK293 cells.

PCAF = biological target: T2, PCAF (Homo sapiens, UniProt Q92831); assay: HAT activity of HATs expressed in 293 cells; assay type: cell-based; conditions: combination of ERK2 expression and Isx, 24 h (FIG. 8)
T2 construct: expressed in transfected cells; host or cells: HEK293
Procedure: as §1

[1] = human islets in culture for 6 months, Isx for 1-2 days (40 μM, FIG. 1A)
[2] = islets in culture for one year, 40 μM Isx 2-8 days

T1 sequence (Q09472 whole entry, species assumed): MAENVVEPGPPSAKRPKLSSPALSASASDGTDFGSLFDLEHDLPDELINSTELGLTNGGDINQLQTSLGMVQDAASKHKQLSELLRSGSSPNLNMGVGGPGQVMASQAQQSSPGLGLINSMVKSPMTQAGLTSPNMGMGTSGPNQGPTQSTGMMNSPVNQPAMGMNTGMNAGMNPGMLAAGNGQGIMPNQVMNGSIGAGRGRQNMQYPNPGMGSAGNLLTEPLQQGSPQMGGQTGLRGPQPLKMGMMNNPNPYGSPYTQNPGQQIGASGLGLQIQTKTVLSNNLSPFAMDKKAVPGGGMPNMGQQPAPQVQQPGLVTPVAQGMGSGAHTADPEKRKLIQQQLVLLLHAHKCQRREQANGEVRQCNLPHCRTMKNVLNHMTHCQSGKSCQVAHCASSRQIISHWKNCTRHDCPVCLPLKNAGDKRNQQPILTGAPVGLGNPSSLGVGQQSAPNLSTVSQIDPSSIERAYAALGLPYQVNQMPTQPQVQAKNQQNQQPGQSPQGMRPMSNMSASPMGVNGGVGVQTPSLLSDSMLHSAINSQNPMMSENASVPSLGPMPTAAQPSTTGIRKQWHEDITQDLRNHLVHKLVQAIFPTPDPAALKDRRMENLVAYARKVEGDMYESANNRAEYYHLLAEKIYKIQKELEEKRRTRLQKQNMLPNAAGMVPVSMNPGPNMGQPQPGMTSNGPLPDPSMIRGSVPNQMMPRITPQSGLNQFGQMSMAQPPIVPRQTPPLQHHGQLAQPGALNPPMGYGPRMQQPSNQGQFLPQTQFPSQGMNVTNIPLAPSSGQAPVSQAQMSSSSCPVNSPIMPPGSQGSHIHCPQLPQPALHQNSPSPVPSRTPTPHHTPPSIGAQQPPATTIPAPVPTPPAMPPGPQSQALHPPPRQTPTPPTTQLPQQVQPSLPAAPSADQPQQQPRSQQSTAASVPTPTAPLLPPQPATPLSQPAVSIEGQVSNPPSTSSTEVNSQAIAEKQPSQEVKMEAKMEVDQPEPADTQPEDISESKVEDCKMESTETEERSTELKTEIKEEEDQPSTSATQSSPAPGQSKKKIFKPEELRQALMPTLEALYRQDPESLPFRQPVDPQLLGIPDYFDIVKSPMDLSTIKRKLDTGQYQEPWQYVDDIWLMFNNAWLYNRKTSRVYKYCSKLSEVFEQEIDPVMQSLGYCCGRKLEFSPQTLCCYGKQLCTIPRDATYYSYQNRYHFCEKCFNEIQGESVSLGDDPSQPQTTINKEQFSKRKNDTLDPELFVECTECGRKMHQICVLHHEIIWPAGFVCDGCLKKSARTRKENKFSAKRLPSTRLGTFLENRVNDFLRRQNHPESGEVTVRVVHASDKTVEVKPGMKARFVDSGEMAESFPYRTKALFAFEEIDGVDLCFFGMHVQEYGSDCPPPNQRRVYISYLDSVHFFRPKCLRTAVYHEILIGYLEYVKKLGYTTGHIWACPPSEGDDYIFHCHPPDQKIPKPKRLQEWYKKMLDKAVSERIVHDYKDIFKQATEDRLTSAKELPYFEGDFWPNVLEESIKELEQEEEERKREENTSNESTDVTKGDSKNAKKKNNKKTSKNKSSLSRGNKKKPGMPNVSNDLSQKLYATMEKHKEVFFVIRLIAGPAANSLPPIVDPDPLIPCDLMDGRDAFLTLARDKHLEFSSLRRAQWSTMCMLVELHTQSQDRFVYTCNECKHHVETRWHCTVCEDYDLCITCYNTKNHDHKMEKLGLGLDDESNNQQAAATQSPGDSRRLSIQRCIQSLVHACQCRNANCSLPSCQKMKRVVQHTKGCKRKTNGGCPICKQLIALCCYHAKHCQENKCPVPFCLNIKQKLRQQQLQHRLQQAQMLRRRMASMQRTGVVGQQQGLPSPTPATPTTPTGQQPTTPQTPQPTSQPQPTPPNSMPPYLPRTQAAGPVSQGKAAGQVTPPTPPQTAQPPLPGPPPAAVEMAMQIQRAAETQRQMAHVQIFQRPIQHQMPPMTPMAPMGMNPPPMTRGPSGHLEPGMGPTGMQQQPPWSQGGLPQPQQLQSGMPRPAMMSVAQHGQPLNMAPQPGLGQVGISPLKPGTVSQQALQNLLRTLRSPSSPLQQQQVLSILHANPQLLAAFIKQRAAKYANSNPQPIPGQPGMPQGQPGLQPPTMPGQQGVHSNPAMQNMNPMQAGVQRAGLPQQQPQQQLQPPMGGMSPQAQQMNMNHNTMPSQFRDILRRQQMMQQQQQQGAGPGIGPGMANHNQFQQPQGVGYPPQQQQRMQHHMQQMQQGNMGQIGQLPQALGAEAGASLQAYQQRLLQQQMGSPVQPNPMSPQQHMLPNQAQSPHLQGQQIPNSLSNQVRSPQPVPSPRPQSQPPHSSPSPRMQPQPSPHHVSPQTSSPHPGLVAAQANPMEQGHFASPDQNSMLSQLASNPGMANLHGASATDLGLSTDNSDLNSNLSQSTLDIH
T2 sequence (Q92831 whole entry, species assumed): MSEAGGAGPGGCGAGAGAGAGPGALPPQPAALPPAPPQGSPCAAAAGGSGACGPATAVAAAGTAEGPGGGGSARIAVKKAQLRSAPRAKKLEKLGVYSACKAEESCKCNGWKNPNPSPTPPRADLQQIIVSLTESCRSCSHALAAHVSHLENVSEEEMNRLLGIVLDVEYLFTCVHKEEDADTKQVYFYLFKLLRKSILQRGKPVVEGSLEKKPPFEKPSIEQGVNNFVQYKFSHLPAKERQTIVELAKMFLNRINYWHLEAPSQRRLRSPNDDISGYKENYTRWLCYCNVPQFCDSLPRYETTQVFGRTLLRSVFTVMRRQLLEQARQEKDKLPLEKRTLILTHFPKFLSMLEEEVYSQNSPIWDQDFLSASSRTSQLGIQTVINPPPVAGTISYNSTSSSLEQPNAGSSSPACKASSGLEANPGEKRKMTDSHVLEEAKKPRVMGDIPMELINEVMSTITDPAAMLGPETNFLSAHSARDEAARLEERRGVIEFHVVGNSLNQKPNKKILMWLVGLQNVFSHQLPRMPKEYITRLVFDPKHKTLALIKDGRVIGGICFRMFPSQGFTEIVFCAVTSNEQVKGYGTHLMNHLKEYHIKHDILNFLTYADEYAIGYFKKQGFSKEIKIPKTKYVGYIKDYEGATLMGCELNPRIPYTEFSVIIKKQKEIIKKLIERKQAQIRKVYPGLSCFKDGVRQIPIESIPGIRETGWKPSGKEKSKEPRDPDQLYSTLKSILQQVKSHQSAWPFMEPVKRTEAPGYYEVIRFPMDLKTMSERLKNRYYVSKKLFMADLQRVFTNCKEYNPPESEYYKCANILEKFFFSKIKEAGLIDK

## O=C(NC1CC1)c1cc(-c2cccs2)on1 [Isx, N-cyclopropyl-5-(thiophen-2-yl)isoxazole-3-carboxamide]
Human islets; [1]
  glucagon mRNA decrease: ~80%
  preproinsulin mRNA: large increase
Human islets; islets in culture for one year
  PCNA and Oct4 mRNA expression: Neither PCNA, an indicator of proliferation, nor Oct4, a factor associated with stem cells, showed consistent or substantial changes in mRNA expression
Human islets; [2]
  increases in PDX-1, the Hnfs, and Isl1 mRNA: relatively small
  increases in the other factors (mRNA; other than PDX-1, the Hnfs, Isl1): more than 10 fold
Human islets; islets in culture for one year, after several days of Isx exposure (FIG. 1D)
  Preproinsulin mRNA increase: ≥ 50 fold
Human islets; islets in culture for one year, at 24 h (FIG. 1D)
  Preproinsulin mRNA increase: 10 fold
Human islets; islets in culture for one year, peaking after 4 days of exposure
  expression of glucokinase and Glut2: increased markedly
MIN6 cells; Isx 24 h (FIG. 2B)
  increase in preproinsulin mRNA: ≤ 4 fold
MIN6 cells; MIN6 cells (FIG. 12)
  concentration for optimal activation of endogenous insulin gene expression: 20 µM
Insulin gene promoter; Isx pretreatment 24 h
  Chromatin recruitment of p300 to the insulin promoter upon stimulation by glucose: increased
Insulin gene promoter; compared with glucose stimulation (FIGS. 3D-E)
  chromatin binding of BETA2 and MafA to the insulin gene promoter: Comparable or greater
BETA2
  acetylation of BETA2: more strongly than the HDAC inhibitor sodium butyrate
HAT; nuclear extracts from Isx-treated MIN6 cells, 24 h (FIG. 4C)
  HAT activity increase: ~2 fold
HAT; over and above that from expressed p300
  HAT activity in nuclear extracts of MIN6 cells expressing p300: increased
p300
  p300 HAT activity: increased
PCAF
  PCAF HAT activity: not
